The values that follow come from patent publication US20220023269A1, “Methods Of Treating Diabetes In Severe Insulin-Resistant Diabetic Subjects” (Balticgruppen Bio AB, priority 2018, published 2022).

For data set [1], the system named is T2D patients on Metformin. Briefly: Phase IIa clinical trial (TELLUS), 28 days. It is filed as in vivo, human. The following applies: for T2*-grad / Δ-T2*: group-averaged curve fitting. The method, then: An exploratory proof-of-concept randomised, parallel-group, double-blinded, placebo-controlled phase IIa 28-day study (TELLUS) of the first-in-class AMPK activator (the test material; 1,000 mg/day) was conducted in 65 T2D patients on Metformin for months, aiming at further exploring safety of test material and the effect of test material on FPG at a single-dose level.
Main inclusion criteria: Male and female patients, 18-80 years of age, with uncomplicated T2D, on stable T2D treatment with Metformin monotherapy for 3 months. HbA1c of ≥6.5% and 9.0%, and not FPG at day 1, was selected as the main inclusion criterion.
Main exclusion criteria: History of myocardial infarction (MI), unstable angina, stroke or transient ischemic attack (TIA). Congestive heart failure defined as New York Heart Association (NYHA) class III-IV. Any clinically significant abnormalities in physical examination, ECG or clinical chemistry results, as judged by the Investigator.
A good-manufacturing practice (GMP) batch of 5 kg test material was manufactured by Anthem BioSciences Pvt.Ltd, Bangalore, Karnataka, India. The suspension is composed of test material 20 mg/ml in 2% methylcellulose in phosphate buffer. A 2% methylcellulose suspension that colour matched the active product was used as placebo. The test material and placebo suspensions were manufactured, packaged and labelled by Recipharm Pharmaceutical Development AB, Solna, Sweden.
Sixty-five (65) patients were randomised (1:1) to treatment with either the material or placebo. A screening visit (Visit 1) was performed within 3 weeks before randomisation and the start of IMP administration. Patients were randomised on Day 1 (Visit 2) and allocated to 28 days' treatment with either test material or placebo (1:1). Study visits to the clinic were performed 7, 14, 21, 28, 29 and 40 days (Visits 3 to 8) following randomisation and start of treatment. The patients were confined to the research clinic from the evening before Day 1 and Day 28 (Day −1 and Day 27, respectively) to ensure fasting conditions before samples for analyses of FPG were collected. Magnetic Resonance Imaging (MRI) scans after screening but before day 1 and after end of treatment were performed at the University Hospital in Uppsala, Sweden, according to standardised methods. Antaros Medical in Uppsala performed the data analysis. A clinical read of the acquired scans was performed by a radiologist at Antaros Medical. If clinically significant findings were noted by the radiologist, the Investigator was notified of the finding. The Investigator was to evaluate and handle the finding as per standard medical/clinical judgment.
Any findings were reported as either baseline events or adverse events, if they started, or worsened after administration of the first dose of IMP. The method used for assessing microvascular function in the calf muscle, (a proxy for oxygenation), include a dynamic MRI investigation of T2* determination before during and after reactive hyperemia (Reference 4). Sixty five (65) patients were randomised, 32 patients in the placebo group and 33 in the test material group, and 59 patients completed the study (28 and 31 in the two groups, respectively). HbA1c of 6.5% and 9.0%, and not FPG at day 1, was used as the inclusion criterion since MRI examinations had to be performed after screen but before day 1.

Data set [2] has as its system AMPK in primary mouse WT and hIAPPtg islets. Nature of the data set: AMPK activation in primary mouse WT and hIAPPtg islets. The data set is classed as cell-based. The following applies: 2.5, 5, 10 μM, 2 hours. As to the method:
All cell lines were lysed in 0.1 M Tris-HCl, pH 6.8, 2% SDS, 10 mM sodium fluoride (SIGMA #S7920), 10 mM β-glycerophosphate (SIGMA #G6376), and 1 mM sodium vanadate (SIGMA #72060) and supernatant collected after 1 minute at 14,000 rpm. Islets (human and mouse) were lysed in 0.1 M Tris-HCl, pH 6.8, 2% SDS, protease inhibitor (Roche #04 693 124 001) and phosphatase inhibitor (Roche #04 906 837 001). Right calf muscle, heart, iWAT, and interscapular BAT was crushed in a pestle using liquid nitrogen and homogenised in ice cold RIPA buffer (150 mM sodium chloride (SIGMA #S7653), 1.0% NP40 (USB), 0.5% sodium deoxycholate (SIGMA #D6750), 0.1% SDS, 50 mM Tris pH 8.0, 20 mM sodium pyrophosphate (SIGMA #71515), 10 mM sodium fluoride, 10 mM β-glycerolphosphate, 1 mM sodium vanadate and protease inhibitor cocktail (Roche #04693124001), 1 tablet/10 ml lysis buffer). The supernatant was collected after 2 min at 14,000 rpm. This procedure was repeated until all fat was eliminated and the supernatant was clear, at 4° C. Samples were analysed on 4-15% polyacrylamide gels. Values were normalised toward AMPKα, β-Actin, GAPDH or the respective non-phosphorylated counterpart.
Table 3 contains origin of cell lines, growth conditions and settings for activation of AMPK via the test material. […]

Setting [3] is: subjects with long TTP at baseline.

In the case of `O=C(Nc1nc(=O)n(Cc2ccc(Cl)cc2)s1)c1ccc(Cl)cc1` [test material, 4-chloro-N-[2-[(4-chlorophenyl)methyl]-3-oxo-1,2,4-thiadiazol-5-yl]benzamide], in data set [1] (1,000 mg/day), the “mean absolute reduction in diastolic blood pressure, day 28 vs day 1” value was −3.8 mmHg and the “mean absolute reduction in systolic blood pressure, day 28 vs day 1” value is given as −5.8 mmHg. The tolerability result in data set [1] (1,000 mg/day, 28 days) is given as “well tolerated”. In addition, the “HOMA-IR at day 28 compared with day 1” value in data set [1] (1,000 mg/day, Wilcoxon test within group) is “statistically significant both absolute (P=0.0097) and relative (P=0.017) reduction”. Besides, the “change in mean heart rate at day 28 compared with baseline” value in data set [1] (1,000 mg/day, not significant) is −1.6 bpm. The “mean absolute reduction in FPG at day 28 compared with day 1” value in data set [1] (1,000 mg/day, post hoc, FPG >7 to <13.3 mmol/l at day 1) was -0.60 mM. Moreover, in data set [1] (MR1 (screening/baseline)), the “T2*-grad” value was 0.528 min⁻¹ and the “Δ-T2*” value was 0.072. Also, in data set [1] (MR2 (day 27-29)), the “T2*-grad” value stood at 0.665 min⁻¹ and the “Δ-T2*” value was found to be 0.081. Moreover, in data set [1] (T2D patients), the “plasma t1/2” value was “long” and the “time to plasma steady-state concentration” value was at least 14 days. Moreover, the “T2*-gradient at day 28 compared with baseline” value in data set [1] (individual curve fitting, Wilcoxon within group) is “significant relative increase”. In addition, the “Δ−T2* (hyperemic perfusion) at day 28 compared with baseline” value in data set [1] (individual curve fitting, vs placebo, 2-way ANOVA) was “statistically significant increase”. In data set [1] (setting [3]), the “time-to-peak (TTP), MRI1 vs MRI2” value is recorded as “significant shortening of TTP” and the “Δ−T2*, MRI1 vs MRI2” value is “increase”. Further, the pAMPKα entry in data set [2] was “directly increased pAMPKα”.
